Source: PubChem BioAssay (NCI)
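Interpolation was linear, between the two tested concentrations surrounding the appropriate level; five concentrations were tested over 48 hours in 96-well plates. The concentration for 50% growth inhibition is given as GI50. TGI is the concentration that stops growth completely.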

Experiments:
Assay in all cases: inhibition of tumour cell growth, NCI panel, 48 h
[1] = test system: HL-60(TB) leukemia
[2] = test system: OVCAR-8 ovarian
[3] = test system: U251 CNS
[4] = test system: UACC-257 melanoma
[5] = test system: NCI-H460 lung
[6] = test system: K-562 leukemia
[7] = test system: SF-268 CNS
[8] = test system: SK-OV-3 ovarian
[9] = test system: NCI-H522 lung
[10] = test system: MDA-MB-231 breast

## COc1cc2c(c(OC)c1OC)-c1ccc(SC)c(=O)cc1[C@@H](NC(=O)c1ccc(Cl)cc1)CC2
[1]
  TGI: < 0.01 µM
[2]
  TGI: > 100 µM
[3]
  TGI: < 0.01 µM
[4]
  TGI: > 100 µM
[5]
  TGI: 10.5 µM
[6]
  TGI: > 100 µM
[7]
  TGI: > 100 µM

## CC(C)C(=O)Oc1cc2c(=O)oc3c(OC(=O)C(C)C)c(OC(=O)C(C)C)cc4c(=O)oc(c1OC(=O)C(C)C)c2c34
[2]
  TGI: > 100 µM
[3]
  TGI: > 100 µM
[4]
  TGI: > 100 µM
[5]
  TGI: > 100 µM
[6]
  TGI: > 100 µM
[8]
  TGI: > 100 µM
[9]
  TGI: > 100 µM
[10]
  TGI: > 100 µM
[7]
  TGI: > 100 µM

## CC1CC[C@]2(C(=O)O)CCC3(C)C(=CCC4[C@@]5(C)CC[C@H](OS(=O)(=O)c6ccccc6)C(C)(C)C5CC[C@]43C)[C@@H]2[C@H]1C (some centres not stated)
[2]
  TGI: > 100 µM
[3]
  TGI: > 100 µM
[4]
  TGI: > 100 µM
[5]
  TGI: > 100 µM
[6]
  TGI: > 100 µM
[8]
  TGI: > 100 µM
[9]
  TGI: > 100 µM
[7]
  TGI: > 100 µM

## O=C(Cc1ccccc1)NN1C(=O)/C(=C\c2ccc(O)cc2)SC1=Nc1ccccc1
[1]
  TGI: > 100 µM
[2]
  TGI: > 100 µM
[3]
  TGI: > 100 µM
[4]
  TGI: > 100 µM
[5]
  TGI: > 100 µM
[6]
  TGI: > 100 µM
[8]
  TGI: > 100 µM
[10]
  TGI: > 100 µM
[7]
  TGI: > 100 µM

## CCOC(=O)[C@H]1Nc2ccccc2C2c3ccccc3CC21 (some centres not stated)
[2]
  TGI: > 100 µM
[3]
  TGI: > 100 µM
[4]
  TGI: 56.9 µM
[5]
  TGI: > 100 µM
[6]
  TGI: > 100 µM
[9]
  TGI: > 100 µM
[7]
  TGI: > 100 µM

## Cc1nc(-n2nc(-c3ccccc3)cc2-c2ccccc2)sc1C(/C=C/c1ccc([N+](=O)[O-])cc1)=N/NC(=O)c1ccncc1
[1]
  TGI: 36.7 µM
[2]
  TGI: > 100 µM
[3]
  TGI: > 100 µM
[4]
  TGI: > 100 µM
[5]
  TGI: > 100 µM
[6]
  TGI: > 100 µM
[8]
  TGI: > 100 µM
[7]
  TGI: > 100 µM

## N#CC1C=Cc2ccccc2N1C(=O)Oc1ccccc1 (configuration not stated)
[1]
  TGI: 48.6 µM
[2]
  TGI: > 100 µM
[3]
  TGI: > 100 µM
[4]
  TGI: > 100 µM
[5]
  TGI: > 100 µM
[6]
  TGI: > 100 µM
[9]
  TGI: > 100 µM
[10]
  TGI: > 100 µM
[7]
  TGI: > 100 µM

## COC(=O)/C(=N/NC(N)=O)C(C(=O)OC)C(=O)C(=O)Nc1ccc(Cl)cc1 (configuration not stated)
[1]
  TGI: > 100 µM
[2]
  TGI: > 100 µM
[3]
  TGI: > 100 µM
[4]
  TGI: > 100 µM
[5]
  TGI: > 100 µM
[6]
  TGI: > 62.6 µM
[8]
  TGI: > 100 µM
[9]
  TGI: > 100 µM
[7]
  TGI: > 100 µM

## CCOC(=O)C1COc2cc(-c3cc(=O)c4ccccc4o3)ccc2O1 (configuration not stated)
[2]
  TGI: 93.6 µM
[3]
  TGI: > 100 µM
[5]
  TGI: > 100 µM
[6]
  TGI: > 100 µM
[8]
  TGI: > 100 µM
[9]
  TGI: > 100 µM
[7]
  TGI: > 100 µM

## O=c1cc(-c2ccccn2)[nH]c2ccc(Cl)cc12
[1]
  TGI: > 100 µM
[2]
  TGI: > 100 µM
[4]
  TGI: > 100 µM
[5]
  TGI: > 100 µM
[6]
  TGI: > 100 µM
[8]
  TGI: > 100 µM
[9]
  TGI: 97.2 µM
[7]
  GI50: 23.4 µM
  TGI: 66.7 µM

## Cc1ccc(C(C)C)cc1NC(=O)Nc1ccc([N+](=O)[O-])cc1
[2]
  GI50: 3.19 µM
  TGI: 11.6 µM
[3]
  GI50: 2.25 µM
  TGI: 6.46 µM
[4]
  GI50: 2.41 µM
  TGI: 7.71 µM
[5]
  GI50: 2.21 µM
  TGI: 5.34 µM
[6]
  GI50: 2.96 µM
  TGI: 7.74 µM
[8]
  GI50: 2.17 µM
  TGI: 5.97 µM
[9]
  GI50: 1.38 µM
  TGI: 3.97 µM
[10]
  GI50: 1.52 µM
  TGI: 3.65 µM
[7]
  GI50: 2.67 µM
  TGI: 12.1 µM

## O=C(Nc1cccc(NC(=O)c2cc(=O)c3ccccc3o2)n1)c1cc(=O)c2ccccc2o1
[1]
  TGI: > 100 µM
[2]
  TGI: > 100 µM
[3]
  TGI: > 100 µM
[4]
  TGI: > 100 µM
[5]
  TGI: > 100 µM
[6]
  TGI: > 100 µM
[8]
  TGI: > 100 µM
[9]
  TGI: 48.3 µM
[7]
  TGI: > 100 µM

## CN(C=O)/C=C/c1cc(O)ccc1O
[1]
  TGI: 40.8 µM
[2]
  TGI: 72.4 µM
[3]
  TGI: > 69.7 µM
[4]
  TGI: 52.7 µM
[5]
  TGI: > 74.7 µM
[6]
  TGI: 62.1 µM
[8]
  TGI: > 100 µM
[9]
  TGI: 9.37 µM
[7]
  TGI: 48.5 µM

## CN1CCc2c1nc(-c1ccc([N+](=O)[O-])cc1)c1c2N(C)CC1
[1]
  TGI: > 100 µM
[2]
  TGI: > 100 µM
[3]
  TGI: > 100 µM
[4]
  TGI: > 100 µM
[5]
  TGI: > 100 µM
[6]
  TGI: > 100 µM
[8]
  TGI: > 100 µM
[7]
  TGI: > 100 µM

## CC(=O)C1C(=O)N(C(C)C)C[C@@H]2CCC(=O)C[C@H]12 (some centres not stated)
[1]
  TGI: > 100 µM
[2]
  TGI: > 100 µM
[3]
  TGI: > 100 µM
[4]
  TGI: > 100 µM
[5]
  TGI: > 100 µM
[6]
  TGI: > 100 µM
[8]
  TGI: > 100 µM
[9]
  TGI: > 100 µM
[7]
  TGI: > 100 µM

## S=c1nc(-c2ccnc(-c3nc(=S)[nH][nH]3)c2)[nH][nH]1
[1]
  TGI: > 100 µM
[2]
  TGI: > 100 µM
[3]
  TGI: > 100 µM
[4]
  TGI: > 100 µM
[5]
  TGI: > 100 µM
[6]
  TGI: > 100 µM
[8]
  TGI: > 100 µM
[9]
  TGI: > 100 µM
[7]
  TGI: > 100 µM

## Cc1cc([N+](=O)[O-])c(C)c(Br)c1C
[2]
  TGI: > 100 µM
[3]
  TGI: > 100 µM
[4]
  TGI: > 100 µM
[5]
  TGI: > 100 µM
[6]
  TGI: > 100 µM
[8]
  TGI: > 100 µM
[9]
  TGI: > 100 µM
[10]
  TGI: > 100 µM
[7]
  TGI: > 100 µM

## N[C@@H]1CCCC[C@@H]1N.O=P([O-])([O-])CN(CP(=O)([O-])[O-])CP(=O)([O-])[O-].[Pt+2]
[1]
  GI50: > 100 µM
  TGI: > 100 µM
[2]
  GI50: > 100 µM
  TGI: > 100 µM
[3]
  GI50: > 100 µM
  TGI: > 100 µM
[4]
  GI50: > 100 µM
  TGI: > 100 µM
[5]
  GI50: > 100 µM
  TGI: > 100 µM
[6]
  GI50: > 100 µM
  TGI: > 100 µM
[8]
  GI50: > 100 µM
  TGI: > 100 µM
[7]
  GI50: > 100 µM
  TGI: > 100 µM

## CCSC(SCC)=C1C(=O)N(c2ccccc2)N=C1C
[1]
  TGI: 7.35 µM
[2]
  TGI: 24.4 µM
[4]
  TGI: 18.5 µM
[5]
  TGI: 29.5 µM
[6]
  TGI: 23.3 µM
[8]
  TGI: 33.4 µM
[9]
  TGI: 5.05 µM
[7]
  TGI: 29.1 µM

## CCCCCCCCCCCCCc1nn[nH]n1
[1]
  TGI: 39.9 µM
[2]
  TGI: 81.1 µM
[3]
  TGI: 32.8 µM
[4]
  TGI: 35.9 µM
[5]
  TGI: 40.6 µM
[8]
  TGI: 47.3 µM
[9]
  TGI: 42.6 µM
[7]
  TGI: 40.5 µM

## COc1nc(NC2OC(COC(C)=O)C(OC(C)=O)C(OC(C)=O)C2OC(C)=O)c(-c2csc(N)n2)c(=O)n1C (configuration not stated)
[2]
  TGI: > 100 µM
[3]
  TGI: > 100 µM
[4]
  TGI: > 100 µM
[5]
  TGI: > 100 µM
[6]
  TGI: > 100 µM
[8]
  TGI: > 100 µM
[9]
  TGI: > 100 µM
[7]
  TGI: > 100 µM

## COc1cc2cc3c4c(cc(OC)c(OC)c4c2cc1OC)CCN3C(=O)CCC(=O)NCCCN(C)C
[1]
  TGI: 56.9 µM
[2]
  TGI: > 100 µM
[3]
  TGI: > 100 µM
[4]
  TGI: > 100 µM
[5]
  TGI: > 100 µM
[6]
  TGI: > 100 µM
[8]
  TGI: > 100 µM
[9]
  TGI: 45.8 µM
[7]
  TGI: > 100 µM
